According to US20120003661A1, “METHODS AND DEVICES FOR THE SELECTIVE DETECTION OF MICROORGANISMS” (C3 JIAN, INC., priority 2010, published 2012):
“Also recorded” adds a separate entry of the source. Like-named read-outs stand apart in the source and are kept apart here. Ends that are not written are not given here.

Columns and labels:
S. mutans = test: MIC of antimicrobial peptides (Table 4); type: cell-based, Streptococcus mutans
MRSA = test: MIC of antimicrobial peptides (Table 4); type: cell-based, Methicillin-resistant Staphylococcus aureus
S. epidermidis = test: MIC of antimicrobial peptides (Table 4); type: cell-based, Staphylococcus epidermidis
E. coli = test: MIC of antimicrobial peptides (Table 4); type: cell-based, Escherichia coli
S. pneumoniae = test: MIC of antimicrobial peptides (Table 4); type: cell-based, Streptococcus pneumoniae
P. aeruginosa = test: MIC of antimicrobial peptides (Table 4); type: cell-based, Pseudomonas aeruginosa
T. rubrum = test: MIC of antimicrobial peptides (Table 4); type: cell-based, Trichophyton rubrum
A. niger = test: MIC of antimicrobial peptides (Table 4); type: cell-based, Aspergillus niger
B. subtilis = test: MIC of antimicrobial peptides (Table 4); type: cell-based, Bacillus subtilis
C. jeikeium = test: MIC of antimicrobial peptides (Table 4); type: cell-based, Corynebacterium jeikeium
[1] = system: bacteria, fungi, and/or yeasts; type: binding
C. albicans = test: MIC of antimicrobial peptides (Table 4); type: cell-based, Candida albicans
A. baumannii = test: MIC of antimicrobial peptides (Table 4); type: cell-based, Acinetobacter baumannii
C. difficile = test: MIC of antimicrobial peptides (Table 4); type: cell-based, Clostridium difficile
E. faecalis = test: MIC of antimicrobial peptides (Table 4); type: cell-based, Enterococcus faecalis
[2] = microorganism(s) listed as target(s) of the targeting peptide, wrapped target lists given cell by cell
[3] = microorganism(s) the targeting peptide binds, as listed in Table 2
[4] = microorganism(s) that the targeting peptide binds, as listed in Table 2

## FESKILNASKELDKEKKVNTALSFNSHQDFAKAYQNGKI [PF-606]
S. mutans
  Organism MIC: S. mutans, 50 μM
MRSA
  Organism MIC: MRSA, 50 μM
S. epidermidis
  Organism MIC: S. epidermidis, 50 μM
E. coli
  Organism MIC: E. coli, 50 μM
S. pneumoniae
  Organism MIC: S. pneumoniae, 50 μM

## KILKKLFKFVF [K-12]
S. mutans
  Organism MIC: S. mutans, 8 μM

## FTRKFLKFLHL [K-17]
S. mutans
  Organism MIC: S. mutans, 8 μM

## GSVIKKRRKRMAKKKHRKLLKKTRIQRRRAGK [PF-527]
P. aeruginosa
  Organism MIC: P. aeruginosa, 50 μM
MRSA
  Organism MIC: MRSA, 50 μM
T. rubrum
  Organism MIC: T. rubrum, 25 μM
A. niger
  Organism MIC: A. niger, 50 μM
B. subtilis
  Organism MIC: B. subtilis, 12.5 μM
C. jeikeium
  Organism MIC: C. jeikeium, 6.25 μM
S. epidermidis
  Organism MIC: S. epidermidis, 25 μM
[1]
  Target(s): S. epidermidis, M. luteus, P. mirabilis,; also recorded: E. coli, P. aeruginosa,; also recorded: MRSA, S. pneumoniae, E. faecalis,; also recorded: C. jeikeium, C. jejuni

## VLPFPAIPLSRRRACVAAPRPRSRQRAS [PF-168]
MRSA
  Organism MIC: MRSA, 50 μM
T. rubrum
  Organism MIC: T. rubrum, 50 μM
A. niger
  Organism MIC: A. niger, 50 μM
[1]; [2]
  Target(s): yeast cells; also recorded: S. epidermidis, M. luteus, E. coli,; also recorded: C. albicans, MRSA, C. jeikeium,; also recorded: C. jejuni

## KILKFLFKQVF [K-11]
S. mutans
  Organism MIC: S. mutans, 4 μM

## LVLRICTDLFTFIKWTIKQRKS [PF-497]
B. subtilis; B. subtilis
  Organism MIC: B. subtilis, 50 μM

## GLGRVIGRLIKQIIWRR [K-1]
S. mutans
  Organism MIC: S. mutans, 25 μM

## FIRKFLKKWLL [K-9]
S. mutans
  Organism MIC: S. mutans, 4 μM

## SFMPEIQKNTIPTQMK [PF-512]
S. pneumoniae
  Organism MIC: S. pneumoniae, 50 μM

## MKRRRCNWCGKLFYLEEKSKEAYCCKECRKKAKKVKK [PF-307]
T. rubrum
  Organism MIC: T. rubrum, 50 μM
B. subtilis; B. subtilis
  Organism MIC: B. subtilis, 50 μM
C. albicans
  Organism MIC: C. albicans, 50 μM

## LRKFLHKLF [K-14]
S. mutans
  Organism MIC: S. mutans, 8 μM

## LSLATFAKIFMTRSNWSLKRFNRL [PF-278]
T. rubrum
  Organism MIC: T. rubrum, 50 μM
S. epidermidis
  Organism MIC: S. epidermidis, 50 μM
C. albicans
  Organism MIC: C. albicans, 50 μM

## KFQGEFTNIGQSYIVSASHMSTSLNTGK [PF-583]
MRSA
  Organism MIC: MRSA, 50 μM
S. epidermidis
  Organism MIC: S. epidermidis, 50 μM
[1]; [2]
  Target(s): C. albicans hyphae

## MIRIRSPTKKKLNRNSISDWKSNTSGRFFY [PF-283]
T. rubrum
  Organism MIC: T. rubrum, 50 μM
B. subtilis; B. subtilis
  Organism MIC: B. subtilis, 50 μM
S. epidermidis
  Organism MIC: S. epidermidis, 50 μM

## CGKLLEQKNFFLKTR [PF-521]
S. pneumoniae
  Organism MIC: S. pneumoniae, 50 μM

## LSEMERRRLRKRA-NH2 [PF-529]
A. niger
  Organism MIC: A. niger, 50 μM
S. pneumoniae
  Organism MIC: S. pneumoniae, 50 μM

## ASKQASKQASKQASKQASKQASRSLKNHLL [PF-523]
S. pneumoniae
  Organism MIC: S. pneumoniae, 50 μM

## WSRVPGHSDTGWKVWHRW-NH2 [PF-547]
S. mutans
  Organism MIC: S. mutans, 12.5 μM
T. rubrum
  Organism MIC: T. rubrum, 25 μM
B. subtilis; B. subtilis
  Organism MIC: B. subtilis, 25 μM

## NYAVVSHT [PF-209]
MRSA
  Organism MIC: MRSA, 50 μM

## RRGCTERLRRMARRNAWDLYAEHFY [PF-148]
A. niger
  Organism MIC: A. niger, 50 μM
B. subtilis; B. subtilis
  Organism MIC: B. subtilis, 50 μM
[1]; [2]
  Target(s): S. epidermidis, M. luteus, P. mirabilis,; also recorded: E. coli, P. aeruginosa,; also recorded: C. albicans, MRSA, S. pneumoniae,; also recorded: E. faecalis, C. jeikeium,; also recorded: C. jejuni, M. smegmatis

## FQKPFTGEEVEDFQDDDEIPTII [PF-437]
S. pneumoniae
  Organism MIC: S. pneumoniae, 50 μM

## SKFKVLRKIIIKEYKGELMLSIQKQR [PF-530]
A. baumannii
  Organism MIC: A. baumannii, 25 μM

## KNKKQTDILEKVKEILDKKKKTKSVGQKLY [PF-538]
A. baumannii
  Organism MIC: A. baumannii, 25 μM
C. difficile
  Organism MIC: C. difficile, 25 μM

## MGIIAGIIKFIKGLIEKFTGK [PF-006]
MRSA
  Organism MIC: MRSA, 50 μM
A. baumannii
  Organism MIC: A. baumannii, 50 μM
B. subtilis; B. subtilis
  Organism MIC: B. subtilis, 25 μM
[1]; [2]
  Target(s): S. epidermidis, M. luteus, E. coli,; also recorded: P. aeruginosa, MRSA, E. faecalis,; also recorded: C. jeikeium, C. jejuni

## SLQSQLGPCLHDQRH [PF-448]
A. niger
  Organism MIC: A. niger, 25 μM
S. pneumoniae
  Organism MIC: S. pneumoniae, 50 μM

## VMQSLYVKPPLILVTKLAQQN [PF-511]
S. pneumoniae
  Organism MIC: S. pneumoniae, 50 μM

## GIFKKFVKILYKVQKL [K-22]
S. mutans
  Organism MIC: S. mutans, 8 μM

## FELVDWLETNLGKILKSKSA-NH2 [PF-522]
C. difficile
  Organism MIC: C. difficile, 25 μM

## PDAPRTCYHKPILAALSRIVVTDR [PF-524]
S. pneumoniae
  Organism MIC: S. pneumoniae, 50 μM

## MRFGSLALVAYDSAIKHSWPRPSSVRRLRM [PF-672]
MRSA
  Organism MIC: MRSA, 1.56 μM
T. rubrum
  Organism MIC: T. rubrum, 0.78 μM
A. niger
  Organism MIC: A. niger, 3 μM
B. subtilis; B. subtilis
  Organism MIC: B. subtilis, 0.78 μM
S. epidermidis
  Organism MIC: S. epidermidis, 0.39 μM
C. albicans
  Organism MIC: C. albicans, 1.56 μM
E. faecalis
  Organism MIC: E. faecalis, 3.13 μM

## GWLKMFKKIIGKFGKF [K-21]
S. mutans
  Organism MIC: S. mutans, 8 μM

## FIRKFLQKLHL [K-16]
S. mutans
  Organism MIC: S. mutans, 8 μM
P. aeruginosa
  Organism MIC: P. aeruginosa, 12.5 μM
MRSA
  Organism MIC: MRSA, 25 μM

## LRKNLRWLF [K-15]
S. mutans
  Organism MIC: S. mutans, 4 μM

## LLKLLKLKKLKF [K-19]
S. mutans
  Organism MIC: S. mutans, 16 μM

## KLFKFLRKHLL [K-10]
S. mutans
  Organism MIC: S. mutans, 4 μM

## TKKIELKRFVDAFVKKSYENYILERELKKLIKAINEELPTK [PF-600]
E. coli
  Organism MIC: E. coli, 50 μM
S. pneumoniae
  Organism MIC: S. pneumoniae, 50 μM

## LGLTAGVAYAAQPTNQPTNQPTNQPTNQPTNQPTNQPRW-NH2 [PF-520]
S. pneumoniae
  Organism MIC: S. pneumoniae, 50 μM

## FLKFLKKFFKKLKY [K-20]
S. mutans
  Organism MIC: S. mutans, 8 μM

## NYRLVNAIFSKIFKKKFIKF [K-7]
S. mutans
  Organism MIC: S. mutans, 12.5 μM

## KKFKKFKVLKIL [K-18]
S. mutans
  Organism MIC: S. mutans, 16 μM

## GIVLIGLKLIPLLANVLR [PF-322]
B. subtilis; B. subtilis
  Organism MIC: B. subtilis, 50 μM

## KFSDQIDKGQDALKDKLGDL [PF-525]
A. niger
  Organism MIC: A. niger, 50 μM
S. pneumoniae
  Organism MIC: S. pneumoniae, 50 μM

## YIQFHLNQQPRPKVKKIKIFL-NH2 [PF-531]
S. mutans
  Organism MIC: S. mutans, 12.5 μM
P. aeruginosa
  Organism MIC: P. aeruginosa, 50 μM
A. baumannii
  Organism MIC: A. baumannii, 25 μM
T. rubrum
  Organism MIC: T. rubrum, 50 μM
A. niger
  Organism MIC: A. niger, 25 μM
B. subtilis; B. subtilis
  Organism MIC: B. subtilis, 25 μM
C. difficile
  Organism MIC: C. difficile, 12.5 μM
C. jeikeium
  Organism MIC: C. jeikeium, 6.25 μM
S. epidermidis
  Organism MIC: S. epidermidis, 50 μM

## VYRKRKSILKIYAKLKGWH [K-2]
S. mutans
  Organism MIC: S. mutans, 12.5 μM

## GILKKLFTKVF [K-13]
S. mutans
  Organism MIC: S. mutans, 16 μM

## 1T-85 (VMASLTWRMRAASASLPTHSRTDA)
[1]; [3]
  Target(s): A. naeslundii, F. nucleatum, P. gingivalis,; also recorded: S. epidermidis, S. gordonii,; also recorded: S. mitis, S. mutans, S. oralis,; also recorded: S. salivarious, S. sanguinis

## PF-128 (GIKVVAARFEEIQFSENFDSIILA)
[1]; [2]
  Target(s): M. luteus, P. aeruginosa, E. faecalis

## 1T-51 (GKPKRMPAEFIDGYGQALLAGA)
[1]; [3]
  Target(s): S. aureus, P. aeruginosa

## PF-C061 (TLNYKKMFFSVIFLLGLNYLICNSPLFFKQIEF)
[1]; [4]
  Target(s): A. naeslundii, F. nucleatum, P. gingivalis,; also recorded: S. mutans, T. denticola

## PF-068 (SHLINNFGLSVINPSTPICLNFSPVFNLLTVYGITCN)
[1]; [2]
  Target(s): S. epidermidis, M. luteus, P. mirabilis,; also recorded: E. coli, P. aeruginosa,; also recorded: C. albicans, MRSA, S. pneumoniae,; also recorded: E. faecalis, C. jeikeium

## 1T-237 (EDPVPNHFTLRRNKKEKPSKS)
[1]; [3]
  Target(s): S. sanguinis

## PF-U (TFFRLFNRSFTQALGK)
[1]; [4]
  Target(s): S. mutans

## 1T-50 (HSDEPIPNILFKSDSVH)
[1]; [3]
  Target(s): P. aeruginosa

## 1T-260 (NILYFIHDENQWEPQKAEIFRGSIKHCAWLSS)
[1]; [2]
  Target(s): A. naeslundii, P. gingivalis, S. epidermidis,; also recorded: S. gordonii, S. mitis,; also recorded: S. mutans, S. oralis, S. sanguinis

## 1T-15 (DVILRVEAQ)
[1]; [2]
  Target(s): yeast and hyphal forms
[1]; [3]
  Target(s): S. mutans

## Rv2660c (RSPDFVDETAGQSWCAILGLNQFH)
[1]; [2]
  Target(s): C. albicans

## VYSFLYVLVIVRKLLSMKKRIERL [PF-499]
B. subtilis; B. subtilis
  Organism MIC: B. subtilis, 50 μM

## KILKFLFKKVF [K-8]
S. mutans
  Organism MIC: S. mutans, 4 μM

## RESKLIAMADMIRRRI-NH2 [PF-545]
MRSA
  Organism MIC: MRSA, 50 μM
A. niger
  Organism MIC: A. niger, 50 μM
B. subtilis; B. subtilis
  Organism MIC: B. subtilis, 25 μM

## 1T-16 (IDMR)
[1]; [2]
  Target(s): yeast and hyphal forms
[1]; [3]
  Target(s): P. aeruginosa
